How the values were obtained:
MmpL3ΔC [1] = target: T1, MmpL3ΔC (Mycobacterium tuberculosis, UniProt P9WJV5); type: biochemical
[2] = system: MsmgΔmmpL3/pMVGH1-mmpL3tb (D58A); type: cell-based; conditions: disc with 5 µg, 7H11-ADC agar, 4 days at 37°C
MmpL3ΔC [3] = target: T1, MmpL3ΔC; type: biochemical; remark: listed apart in the source
MmpL3ΔC H68A = MmpL3ΔC H68A (Mycobacterium tuberculosis, UniProt P9WJV5, H68A); type: biochemical
MmpL3ΔC S66A [4] = target: T2, MmpL3ΔC S66A (Mycobacterium tuberculosis, UniProt P9WJV5, S66A); type: biochemical
MmpL3ΔC D139A [5] = target: T3, MmpL3ΔC D139A (Mycobacterium tuberculosis, UniProt P9WJV5, D139A); type: biochemical
MmpL3ΔC D58A [6] = target: T4, MmpL3ΔC D58A (Mycobacterium tuberculosis, UniProt P9WJV5, D58A); type: biochemical
MmpL3ΔC S66A [7] = target: T2, MmpL3ΔC S66A; type: biochemical; remark: listed apart in the source
MmpL3ΔC D58A [8] = target: T4, MmpL3ΔC D58A; type: biochemical; remark: listed apart in the source
MmpL3ΔC D139A [9] = target: T3, MmpL3ΔC D139A; type: biochemical; remark: listed apart in the source
MmpL3ΔC [10] = target: T1, MmpL3ΔC; type: biochemical; remark: listed apart in the source

| SMILES | Effect on asymmetry of NBD-PE lipid distribution in proteoliposomes (flippase activity) (MmpL3ΔC [1]) | Susceptibility to growth inhibition (zone of inhibition) compared with cells producing WT Mtb MmpL3 [2] | Rate of fluorescence change (lipid transport activity) (MmpL3ΔC [3]) [RU/s/µM protein] | Rate of fluorescence change (lipid transport activity) (MmpL3ΔC H68A) [RU/s/µM protein] | Effect on remaining lipid transfer activity (in words) (MmpL3ΔC S66A [4]) | Rate of fluorescence change (lipid transport activity) (MmpL3ΔC S66A [4]) [RU/s/µM protein] | Rate of fluorescence change (lipid transport activity) (MmpL3ΔC D139A [5]) [RU/s/µM protein] | Rate of fluorescence change (lipid transport activity) (MmpL3ΔC D58A [6]) [RU/s/µM protein] | Stimulation of the variant by ligand (in words) (MmpL3ΔC S66A [7]) | Effect on H+ transfer activity (in words) (MmpL3ΔC D58A [8]) | Effect on H+ transfer activity (in words) (MmpL3ΔC D139A [9]) | Effect on H+ transfer activity (in words) (MmpL3ΔC [10]) |
| --- | --- | --- | --- | --- | --- | --- | --- | --- | --- | --- | --- | --- |
| CC(C)=CCC/C(C)=C/CNCCNC1C2CC3CC(C2)CC1C3 (centres unmarked) [SQ109] | unaffected | less susceptible | 2.04 | -0.12 | inhibited | -0.15 | 2.52 | 10.7 | – | – | – | – |
| CCCCCCCCCCCCCCCC(=O)OC[C@H]1O[C@H](O[C@H]2O[C@H](CO)[C@@H](O)[C@H](O)[C@H]2O)[C@H](O)[C@@H](O)[C@@H]1O [Tre-C16] | unaffected | – | 1.32 | -0.62 | inhibited | -0.02 | 13.43 | 11.53 | no significant stimulation | stimulated | stimulated by Tre-C16 even more strongly than the parent protein | strongly stimulated |
| OC[C@H]1O[C@H](O[C@H]2O[C@H](CO)[C@@H](O)[C@H](O)[C@H]2O)[C@H](O)[C@@H](O)[C@@H]1O [trehalose] | unaffected | – | 2.96 | 0.37 | inhibited | 1.20 | 18.84 | 7.22 | no significant stimulation | weakly | – | weakly |
